Test results: patent US9815864B2, “Substituted nucleosides, nucleotides and analogs thereof” (Alios BioPharma, Inc., priority 2013, dated 2017)
Like-named read-outs stand apart in the source and are kept apart here.

How the values were obtained:
NV genome in HG23 cells = experiment: Norovirus replicon assay (HG23 cells, NV genome by qRT-PCR); type: cell-based, genogroup 1 norovirus
Murine norovirus (MNV-1) = experiment: Norovirus MNV-1 antiviral assay (CPE reduction, CellTiter-Glo, RAW 264.7 cells); type: cell-based
[1] = target: Norovirus polymerase (NoVpol, genotype II) (Lordsdale virus, UniProt P54634); experiment: biochemical; settings: 50 nM recombinant enzyme, 2.5 hours at 30° C.; read-out: IC50
Sequence of Norovirus polymerase (NoVpol, genotype II) (P54634 1190-1699 limits assumed): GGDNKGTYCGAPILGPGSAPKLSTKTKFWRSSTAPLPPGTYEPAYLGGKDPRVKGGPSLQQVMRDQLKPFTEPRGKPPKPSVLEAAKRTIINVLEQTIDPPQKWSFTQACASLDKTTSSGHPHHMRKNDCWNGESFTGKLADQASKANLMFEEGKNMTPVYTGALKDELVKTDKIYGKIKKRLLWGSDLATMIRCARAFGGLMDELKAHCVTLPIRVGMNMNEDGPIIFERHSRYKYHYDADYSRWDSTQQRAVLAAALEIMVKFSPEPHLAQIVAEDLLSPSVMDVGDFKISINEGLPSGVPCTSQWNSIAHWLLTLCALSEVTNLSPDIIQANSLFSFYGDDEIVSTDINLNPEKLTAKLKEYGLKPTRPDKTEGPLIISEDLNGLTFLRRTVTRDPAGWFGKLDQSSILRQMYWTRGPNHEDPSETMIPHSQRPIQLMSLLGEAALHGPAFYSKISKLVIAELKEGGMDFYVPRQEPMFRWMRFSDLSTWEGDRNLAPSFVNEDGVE

[2] = Norovirus, HG23 cells, reduction of NV genome vs mock-medium at 48 h, read-out: EC50
[3] = RAW264.7, 72 h, RAW 264.7 cells infected with MNV-1 (MOI of 0.001), 3 days, read-out: EC50
[4] = HG23 cells, reduction of NV genome vs mock-medium at 48 h, read-out: EC50
[5] = RAW 264.7 cells infected with MNV-1 (MOI of 0.001), 3 days, read-out: EC50

Row | SMILES | EC50 (NV genome in HG23 cells; [2]) | EC50 (Murine norovirus (MNV-1); [3]) | other results
1 | [N-]=[N+]=NC[C@]1(CO)O[C@@H](n2ccc(N)nc2=O)[C@H](F)[C@@H]1O [Compound 113a] | 1 to 10 µM | 10 to 100 µM | –
2 | Nc1ccn([C@@H]2O[C@@](CO)(CF)[C@@H](O)C2(F)F)c(=O)n1 [Compound 179a] | 1 to 10 µM | < 1 µM | –
3 | C#C[C@]1(O)[C@H](n2cnc3c(=O)[nH]c(N)nc32)O[C@](F)(CO)[C@H]1F [Compound 146a] | – | 10 to 100 µM | IC50 [1]: < 1 µM
4 | CCOc1nc(N)nc2c1ncn2[C@@H]1O[C@]2(F)CO[P@](=O)(OC(C)C)O[C@H]2[C@@]1(C)F [Compound 149a] | – | – | EC50 (NV genome in HG23 cells; [4]): 1 to 10 µM; EC50 (Murine norovirus (MNV-1); [5]): 10 to 100 µM
5 | CCOc1nc(N)nc2c1ncn2[C@@H]1O[C@](F)(COP(=O)(OCOC(=O)OC(C)C)OCOC(=O)OC(C)C)[C@@H](O)[C@@]1(C)F [Compound 188a] | < 1 µM | 1 to 10 µM | –
6 | Nc1ccn([C@@H]2O[C@@](CO)(CF)[C@@H](O)[C@H]2F)c(=O)n1 [Compound 23a] | 10 to 100 µM | 1 to 10 µM | –
7 | CCOc1nc(N)nc2c1ncn2[C@@H]1O[C@](F)(CO[P@@](=O)(N[C@@H](C)C(=O)OC2CCCCC2)Oc2ccccc2)[C@@H](O)[C@@]1(C)F [Compound 141a] | – | – | EC50 (NV genome in HG23 cells; [4]): 1 to 10 µM; EC50 (Murine norovirus (MNV-1); [5]): 1 to 10 µM
8 | N#C[C@@]1(n2ccc(N)nc2=O)O[C@@](CO)(CF)[C@@H](O)[C@H]1O [Compound 376a] | – | – | EC50 (Murine norovirus (MNV-1); [5]): 10 to 100 µM
9 | C#C[C@]1(O)[C@H](n2ccc(=O)[nH]c2=O)O[C@](F)(COP(=O)(OCOC(=O)OC(C)C)OCOC(=O)OC(C)C)[C@H]1O [Compound 208a] | < 1 µM | 10 to 100 µM | –
10 | CCOc1nc(N)nc2c1ncn2[C@@H]1O[C@]2(F)CO[P@](=O)(OC(C)C)O[C@H]2[C@@]1(C)O [Compound 144a] | 1 to 10 µM | 10 to 100 µM | –
11 | Nc1ccn([C@@H]2O[C@@](CO)(CCl)[C@@H](O)[C@H]2O)c(=O)n1 [Compound 271a] | 10 to 100 µM | 10 to 100 µM | –
12 | C#C[C@@]1(O)[C@H](O)[C@@H](CO)O[C@H]1n1ccc2c(N)ncnc21 [Compound 291a] | < 1 µM | < 1 µM | –
13 | CCOc1nc(N)nc2c1ncn2[C@@H]1O[C@](F)(COP(=O)(OCOC(=O)OC(C)C)OCOC(=O)OC(C)C)[C@@H](O)[C@@]1(C)O [Compound 209a] | < 1 µM | 1 to 10 µM | –
14 | C#C[C@]1(O)[C@H](n2ccc(=O)[nH]c2=O)O[C@](F)(COP(=O)(N[C@@H](C)C(=O)OC2CCCCC2)Oc2ccccc2)[C@H]1O (stereo partly drawn) [Compound 131a] | – | – | EC50 (NV genome in HG23 cells; Norovirus, HG23, 48 h): < 1 µM; EC50 (Murine norovirus (MNV-1); MNV-1, RAW264.7, 72 h): 10 to 100 µM
15 | C#C[C@@]1(O)[C@H](O)[C@@](CF)(COP(=O)(OCOC(=O)OC(C)C)OCOC(=O)OC(C)C)O[C@H]1n1cnc2c(N)ncnc21 [Compound 168a] | < 1 µM | 10 to 100 µM | –
16 | CC(C)OC(=O)OCOP(=O)(OCOC(=O)OC(C)C)OC[C@@]1(CF)O[C@@H](n2ccc(=O)[nH]c2=O)[C@](C)(O)[C@@H]1O [Compound 156a] | < 1 µM | 1 to 10 µM | –
17 | CCOc1nc(N)nc2c1ncn2[C@@H]1O[C@](F)(CO[P@](=O)(N[C@@H](C)C(=O)OC2CCCCC2)Oc2ccccc2)[C@@H](O)[C@@]1(C)F [Compound 140a] | – | – | EC50 (NV genome in HG23 cells; Norovirus, HG23, 48 h): < 1 µM; EC50 (Murine norovirus (MNV-1); MNV-1, RAW264.7, 72 h): 1 to 10 µM
